In PubChem BioAssay (NCI):
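How tested: cells in 96-well plates exposed to compound for 48 hours at five concentrations. At the TGI there is no net growth.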

What was measured:
Experiment in all cases: growth of human tumour cells (NCI), 48 h
[1] = system: SK-MEL-2 melanoma
[2] = system: SR leukemia
[3] = system: SW-620 colon
[4] = system: HT29 colon
[5] = system: A549 NSCLC
[6] = system: CCRF-CEM leukemia
[7] = system: CAKI-1 renal
[8] = system: TK-10 renal
[9] = system: HCC-2998 colon
[10] = system: SK-MEL-5 melanoma

For `CCCCCCCCC/C=C1\CC(CO)(COC(=O)c2ccccc2)OC1=O` (centres undefined), the TGI [1] was greater than 100 µM, the TGI [2] was greater than 100 µM and the TGI [3] was 34.2 µM. It also gave a TGI [4] of 35.3 µM, a TGI [5] of 52.9 µM and a TGI [6] greater than 100 µM. The TGI [7] was 52.5 µM, the TGI [8] was 44.4 µM and the TGI [9] was 39.3 µM. It also gave a TGI [10] of 28.6 µM.
For `NC(=O)NCCCC(NC(=O)OCCCCCn1ccc(=O)[nH]c1=O)C(=O)O` (centres undefined), the TGI [1] was greater than 100 µM, the TGI [2] was greater than 100 µM and the TGI [3] was greater than 100 µM. For the same molecule, the TGI [4] was greater than 100 µM, the TGI [5] was greater than 100 µM and the TGI [6] was greater than 100 µM. The TGI [7] was greater than 100 µM, the TGI [8] was greater than 100 µM and the TGI [9] was greater than 100 µM.
In the case of `COc1ccc(C2(C3c4cc(OC)c(OC)cc4CCN3C)SCCCS2)cc1O` (centres undefined), the TGI [1] is reported as greater than 100 µM, the TGI [2] is reported as greater than 100 µM and the TGI [3] is reported as greater than 100 µM. It also gave a TGI [4] greater than 100 µM, a TGI [5] greater than 100 µM and a TGI [6] greater than 100 µM. The TGI [7] was greater than 100 µM, the TGI [8] was greater than 100 µM and the TGI [9] was greater than 100 µM. For the same molecule, the TGI [10] was greater than 100 µM.
Work on `O=C(OCc1ccccc1)N1c2cc([N+](=O)[O-])ccc2C(=O)N2CCC[C@H]2C1O` (some centres undefined) yielded a TGI [1] greater than 100 µM, a TGI [2] greater than 100 µM and a TGI [3] greater than 100 µM. It also gave a TGI [4] greater than 100 µM, a TGI [5] greater than 100 µM and a TGI [6] greater than 100 µM. The TGI [7] was greater than 100 µM, the TGI [8] was greater than 100 µM and the TGI [9] was greater than 100 µM. For the same molecule, the TGI [10] was greater than 100 µM.
Work on `CN(c1ccccc1Cl)S(=O)(=O)c1ccccc1[N+](=O)[O-]` yielded a TGI [1] greater than 100 µM, a TGI [2] greater than 100 µM and a TGI [3] greater than 100 µM. For the same molecule, the TGI [4] was greater than 100 µM, the TGI [5] was greater than 100 µM and the TGI [6] was greater than 100 µM. For the same molecule, the TGI [7] was greater than 100 µM, the TGI [8] was greater than 100 µM and the TGI [9] was greater than 100 µM. It also gave a TGI [10] of 28.9 µM.
Molecule `CC(=N\N=C\c1ccccn1)/C(C)=N/N=C(C)/C(C)=N/N=C(C)/C(C)=N/N=C/c1ccccn1` has a TGI [1] greater than 100 µM, a TGI [2] greater than 100 µM and a TGI [3] greater than 100 µM. The TGI [4] was greater than 100 µM, the TGI [5] was greater than 100 µM and the TGI [6] was greater than 100 µM. For the same molecule, the TGI [7] was greater than 100 µM, the TGI [8] was greater than 100 µM and the TGI [9] was greater than 100 µM. The TGI [10] was greater than 100 µM.
`N#Cc1nc(/C=C/c2ccccc2)oc1N` gave a TGI [1] greater than 100 µM, a TGI [2] of 2.9 µM and a TGI [3] greater than 100 µM. For the same molecule, the TGI [4] was greater than 100 µM, the TGI [5] was greater than 100 µM and the TGI [6] was greater than 100 µM. It also gave a TGI [7] greater than 100 µM, a TGI [8] greater than 100 µM and a TGI [9] greater than 100 µM. For the same molecule, the TGI [10] was greater than 100 µM.
With `OCCO[P+]1(OCCO)n2c3ccc2C(c2ccccc2)=C2C=CC(=N2)C(c2ccccc2)=c2ccc(n21)=C(c1ccccc1)C1=NC(=C3c2ccccc2)C=C1` the TGI [1] was 0.0438 µM, the TGI [2] was 0.294 µM and the TGI [3] was 1.09 µM. The TGI [4] was 3.36 µM, the TGI [5] was 1.93 µM and the TGI [6] was 0.252 µM. For the same molecule, the TGI [7] was 2.59 µM, the TGI [8] was 1.5 µM and the TGI [9] was 0.327 µM. The TGI [10] was 0.164 µM.
